{"source": "patent US20210047304A1", "about": "“Bromodomain Inhibitors” (AbbVie Inc., priority 2016, published 2021)", "biological_target": "BRD4 (BDI_K57-E168) (Homo sapiens, UniProt O60885)", "assay": "TR-FRET bromodomain binding assay, BRD4 BDI", "data": [{"smiles": "Cc1cc(F)cc(C)c1Oc1ccc(C(C)(C)O)cc1-c1cn(C)c(=O)cc1O[C@H]1C[C@@H](C(C)(C)O)C1", "note": "[Example 94, 5-[2-(4-fluoro-2,6-dimethylphenoxy)-5-(2-hydroxypropan-2-yl)phenyl]-4-{[cis-3-(2-hydroxypropan-2-yl)cyclobutyl]oxy}-1-methylpyridin-2(1H)-one]", "values": [{"measurement": "Ki", "result": 1.67, "unit": "µM"}]}, {"smiles": "CCNC(=O)[C@H]1C[C@@H](Oc2cc(=O)n(C)cc2-c2cc(C(C)(C)O)ccc2Oc2c(C)cc(F)cc2C)C1", "note": "[Example 95, cis-N-ethyl-3-({5-[2-(4-fluoro-2,6-dimethylphenoxy)-5-(2-hydroxypropan-2-yl)phenyl]-1-methyl-2-oxo-1,2-dihydropyridin-4-yl}oxy)cyclobutane-1-carboxamide]", "values": [{"measurement": "Ki", "result": 1.58, "unit": "µM"}]}, {"smiles": "Cc1cc(F)cc(C)c1Oc1ccc(C(C)(C)O)cc1-c1cn(C)c(=O)cc1O[C@H]1C[C@@H](C(=O)N2CCCC2)C1", "note": "[Example 96, 5-[2-(4-fluoro-2,6-dimethylphenoxy)-5-(2-hydroxypropan-2-yl)phenyl]-1-methyl-4-{[cis-3-(pyrrolidine-1-carbonyl)cyclobutyl]oxy}pyridin-2(1H)-one]", "values": [{"measurement": "Ki", "result": 2.2, "unit": "µM"}]}, {"smiles": "Cc1cc(F)cc(C)c1Oc1ccc(C(C)(C)O)cc1-c1cn(C)c(=O)cc1O[C@H]1C[C@@H](C(=O)O)C1", "note": "[Example 97, cis-3-({5-[2-(4-fluoro-2,6-dimethylphenoxy)-5-(2-hydroxypropan-2-yl)phenyl]-1-methyl-2-oxo-1,2-dihydropyridin-4-yl}oxy)cyclobutane-1-carboxylic acid]", "values": [{"measurement": "Ki", "result": 9.53, "unit": "µM"}]}, {"smiles": "CC(=O)N(N)[C@H]1CC[C@H](Oc2cc(=O)n(C)cc2-c2cc(C(C)(C)O)ccc2Oc2c(C)cc(F)cc2C)CC1", "note": "[Example 98, N-[trans-4-({5-[2-(4-fluoro-2,6-dimethylphenoxy)-5-(2-hydroxypropan-2-yl)phenyl]-1-methyl-2-oxo-1,2-dihydropyridin-4-yl}oxy)cyclohexyl]acetohydrazide]", "values": [{"measurement": "Ki", "result": 1.14, "unit": "µM"}]}, {"smiles": "CC(=O)NN[C@H]1CC[C@@H](Oc2cc(=O)n(C)cc2-c2cc(C(C)(C)O)ccc2Oc2c(C)cc(F)cc2C)CC1", "note": "[Example 99, N′-[cis-4-({5-[2-(4-fluoro-2,6-dimethylphenoxy)-5-(2-hydroxypropan-2-yl)phenyl]-1-methyl-2-oxo-1,2-dihydropyridin-4-yl}oxy)cyclohexyl]acetohydrazide]", "values": [{"measurement": "Ki", "result": 10.4, "unit": "µM"}]}, {"smiles": "CC(=O)N[C@H]1C[C@H](Oc2cc(=O)n(C)cc2-c2cc(C(C)(C)O)ccc2Oc2c(C)cc(F)cc2C)C1", "note": "[Example 100, N-[trans-3-({5-[2-(4-fluoro-2,6-dimethylphenoxy)-5-(2-hydroxypropan-2-yl)phenyl]-1-methyl-2-oxo-1,2-dihydropyridin-4-yl}oxy)cyclobutyl]acetamide]", "values": [{"measurement": "Ki", "result": 0.719, "unit": "µM"}]}, {"smiles": "CNC(=O)[C@H]1CC[C@H](Oc2cc(=O)n(C)cc2-c2cc(C(C)(C)O)ccc2Oc2c(C)cc(F)cc2C)CC1", "note": "[Example 101, trans-4-({5-[2-(4-fluoro-2,6-dimethylphenoxy)-5-(2-hydroxypropan-2-yl)phenyl]-1-methyl-2-oxo-1,2-dihydropyridin-4-yl}oxy)-N-methylcyclohexane-1-carboxamide]", "values": [{"measurement": "Ki", "result": 3.53, "unit": "µM"}]}, {"smiles": "Cc1cc(F)cc(C)c1Oc1ccc(C(C)(C)O)cc1-c1cn(C)c(=O)cc1O[C@H]1CC[C@H](C(N)=O)CC1", "note": "[Example 102, trans-4-({5-[2-(4-fluoro-2,6-dimethylphenoxy)-5-(2-hydroxypropan-2-yl)phenyl]-1-methyl-2-oxo-1,2-dihydropyridin-4-yl}oxy)cyclohexane-1-carboxamide]", "values": [{"measurement": "Ki", "result": 4, "unit": "µM"}]}, {"smiles": "Cc1cc(F)cc(C)c1Oc1ccc(C(C)(C)O)cc1-c1cn(C)c(=O)cc1O[C@H]1CC[C@H](NC(=O)C2(CNC(=O)OC(C)(C)C)CC2)CC1", "note": "[Example 104, tert-butyl [(1-{[trans-4-({5-[2-(4-fluoro-2,6-dimethylphenoxy)-5-(2-hydroxypropan-2-yl)phenyl]-1-methyl-2-oxo-1,2-dihydropyridin-4-yl}oxy)cyclohexyl]carbamoyl}cyclopropyl)methyl]carbamate]", "values": [{"measurement": "Ki", "result": "> 13", "unit": "µM"}]}, {"smiles": "CC(=O)NN[C@H]1CC[C@H](Oc2cc(=O)n(C)cc2-c2cc(C(C)(C)O)ccc2Oc2c(C)cc(F)cc2C)CC1", "note": "[Example 105, N′-[trans-4-({5-[2-(4-fluoro-2,6-dimethylphenoxy)-5-(2-hydroxypropan-2-yl)phenyl]-1-methyl-2-oxo-1,2-dihydropyridin-4-yl}oxy)cyclohexyl]acetohydrazide]", "values": [{"measurement": "Ki", "result": 2.16, "unit": "µM"}]}, {"smiles": "Cc1cc(F)cc(C)c1Oc1ccc(C(C)(C)O)cc1-c1cn(C)c(=O)cc1O[C@H]1CC[C@H](NNC(=O)OC(C)(C)C)CC1", "note": "[Example 106, tert-butyl 2-[trans-4-({5-[2-(4-fluoro-2,6-dimethylphenoxy)-5-(2-hydroxypropan-2-yl)phenyl]-1-methyl-2-oxo-1,2-dihydropyridin-4-yl}oxy)cyclohexyl]hydrazine-1-carboxylate]", "values": [{"measurement": "Ki", "result": 3.41, "unit": "µM"}]}, {"smiles": "Cc1cc(F)cc(C)c1Oc1ccc(C(C)(C)O)cc1-c1cn(C)c(=O)cc1O[C@H]1CC[C@@H](NNC(=O)OC(C)(C)C)CC1", "note": "[Example 107, tert-butyl 2-[cis-4-({5-[2-(4-fluoro-2,6-dimethylphenoxy)-5-(2-hydroxypropan-2-yl)phenyl]-1-methyl-2-oxo-1,2-dihydropyridin-4-yl}oxy)cyclohexyl]hydrazine-1-carboxylate]", "values": [{"measurement": "Ki", "result": 1.79, "unit": "µM"}]}, {"smiles": "Cc1cc(F)cc(C)c1Oc1ccc(C(C)(C)O)cc1-c1cn(C)c(=O)cc1O[C@H]1CC[C@H](C(=O)N(C)C)CC1", "note": "[Example 108, trans-4-({5-[2-(4-fluoro-2,6-dimethylphenoxy)-5-(2-hydroxypropan-2-yl)phenyl]-1-methyl-2-oxo-1,2-dihydropyridin-4-yl}oxy)-N,N-dimethylcyclohexane-1-carboxamide]", "values": [{"measurement": "Ki", "result": 5.44, "unit": "µM"}]}, {"smiles": "Cc1cc(F)cc(C)c1Oc1ccc(C(C)(C)O)cc1-c1cn(C)c(=O)cc1O[C@H]1CC[C@H](N2NCCC2=O)CC1", "note": "[Example 109, 5-[2-(4-fluoro-2,6-dimethylphenoxy)-5-(2-hydroxypropan-2-yl)phenyl]-1-methyl-4-{[trans-4-(5-oxopyrazolidin-1-yl)cyclohexyl]oxy}pyridin-2(1H)-one]", "values": [{"measurement": "Ki", "result": "> 13", "unit": "µM"}]}, {"smiles": "Cc1cc(F)cc(C)c1Oc1ccc(C(C)(C)O)cc1-c1cn(C)c(=O)cc1O[C@H]1CC[C@H](NC(=O)C2(C(N)=O)CC2)CC1", "note": "[Example 111, N-[trans-4-({5-[2-(4-fluoro-2,6-dimethylphenoxy)-5-(2-hydroxypropan-2-yl)phenyl]-1-methyl-2-oxo-1,2-dihydropyridin-4-yl}oxy)cyclohexyl]cyclopropane-1,1-dicarboxamide]", "values": [{"measurement": "Ki", "result": 1.19, "unit": "µM"}]}, {"smiles": "CC(=O)N1CCC(=O)N1[C@H]1CC[C@H](Oc2cc(=O)n(C)cc2-c2cc(C(C)(C)O)ccc2Oc2c(C)cc(F)cc2C)CC1", "note": "[Example 112, 4-{[trans-4-(2-acetyl-5-oxopyrazolidin-1-yl)cyclohexyl]oxy}-5-[2-(4-fluoro-2,6-dimethylphenoxy)-5-(2-hydroxypropan-2-yl)phenyl]-1-methylpyridin-2(1H)-one]", "values": [{"measurement": "Ki", "result": 4.86, "unit": "µM"}]}, {"smiles": "CNC(=O)N(C)Cc1ccc(Oc2c(C)cccc2C)c(-c2cn(C)c(=O)cc2O[C@H]2CC[C@H](NC(=O)C3(C)CC3)CC2)c1", "note": "[Example 113, N-[trans-4-({5-[2-(2,6-dimethylphenoxy)-5-{[methyl(methylcarbamoyl)amino]methyl}phenyl]-1-methyl-2-oxo-1,2-dihydropyridin-4-yl}oxy)cyclohexyl]-1-methylcyclopropane-1-carboxamide]", "values": [{"measurement": "Ki", "result": 6.06, "unit": "µM"}]}, {"smiles": "Cc1cc(F)cc(C)c1Oc1ccc(C(C)(C)O)cc1-c1cn(C)c(=O)cc1O[C@H]1CC[C@H](n2nccc2O)CC1", "note": "[Example 114, 5-[2-(4-fluoro-2,6-dimethylphenoxy)-5-(2-hydroxypropan-2-yl)phenyl]-4-{[trans-4-(5-hydroxy-1H-pyrazol-1-yl)cyclohexyl]oxy}-1-methylpyridin-2(1H)-one]", "values": [{"measurement": "Ki", "result": 4.66, "unit": "µM"}]}, {"smiles": "Cc1cccc(C)c1Oc1ccc(CN(C)C(N)=O)cc1-c1cn(C)c(=O)cc1O[C@H]1CC[C@H](NC(=O)C2(C)CC2)CC1", "note": "[Example 115, N-[trans-4-({5-[5-{[carbamoyl(methyl)amino]methyl}-2-(2,6-dimethylphenoxy)phenyl]-1-methyl-2-oxo-1,2-dihydropyridin-4-yl}oxy)cyclohexyl]-1-methylcyclopropane-1-carboxamide]", "values": [{"measurement": "Ki", "result": 2.92, "unit": "µM"}]}, {"smiles": "CC(=O)N([C@H](C)c1ccc(Oc2c(C)cccc2C)c(-c2cn(C)c(=O)cc2O[C@H]2CC[C@H](NC(=O)C3(C)CC3)CC2)c1)[C@@H](C)c1ccccc1", "note": "[Example 116, N-{trans-4-[(5-{5-[(1R)-1-{acetyl[(1S)-1-phenylethyl]amino}ethyl]-2-(2,6-dimethylphenoxy)phenyl}-1-methyl-2-oxo-1,2-dihydropyridin-4-yl)oxy]cyclohexyl}-1-methylcyclopropane-1-carboxamide]", "values": [{"measurement": "Ki", "result": "> 13", "unit": "µM"}]}, {"smiles": "Cc1cc(F)cc(C)c1Oc1ccc(C(C)(C)O)cc1-c1cn(C)c(=O)cc1O[C@H]1CC[C@H](NC(=O)C(F)(F)F)CC1", "note": "[Example 117, 2,2,2-trifluoro-N-[trans-4-({5-[2-(4-fluoro-2,6-dimethylphenoxy)-5-(2-hydroxypropan-2-yl)phenyl]-1-methyl-2-oxo-1,2-dihydropyridin-4-yl}oxy)cyclohexyl]acetamide]", "values": [{"measurement": "Ki", "result": 3.57, "unit": "µM"}]}, {"smiles": "Cc1cc(F)cc(C)c1Oc1ccc(C(C)(C)O)cc1-c1cn(C)c(=O)cc1O[C@H]1CC[C@H](NC(=O)CC(C)(C)CO)CC1", "note": "[Example 118, N-[trans-4-({5-[2-(4-fluoro-2,6-dimethylphenoxy)-5-(2-hydroxypropan-2-yl)phenyl]-1-methyl-2-oxo-1,2-dihydropyridin-4-yl}oxy)cyclohexyl]-4-hydroxy-3,3-dimethylbutanamide]", "values": [{"measurement": "Ki", "result": 1.91, "unit": "µM"}]}, {"smiles": "Cc1cc(F)cc(C)c1Oc1ccc(C(C)(C)O)cc1-c1cn(C)c(=O)cc1O[C@H]1CC[C@H](NC(=O)CCC(C)(C)O)CC1", "note": "[Example 119, N-[trans-4-({5-[2-(4-fluoro-2,6-dimethylphenoxy)-5-(2-hydroxypropan-2-yl)phenyl]-1-methyl-2-oxo-1,2-dihydropyridin-4-yl}oxy)cyclohexyl]-4-hydroxy-4-methylpentanamide]", "values": [{"measurement": "Ki", "result": 2.81, "unit": "µM"}]}, {"smiles": "Cc1cc(F)cc(C)c1Oc1ccc(C(C)(C)O)cc1-c1cn(C)c(=O)cc1O[C@H]1CC[C@H](N2CC(C)(C)CC2=O)CC1", "note": "[Example 120, 4-{[trans-4-(4,4-dimethyl-2-oxopyrrolidin-1-yl)cyclohexyl]oxy}-5-[2-(4-fluoro-2,6-dimethylphenoxy)-5-(2-hydroxypropan-2-yl)phenyl]-1-methylpyridin-2(1H)-one]", "values": [{"measurement": "Ki", "result": 0.891, "unit": "µM"}]}]}
